According to article PMC5062083, “Development of a one-pot assay for screening and identification of Mur pathway inhibitors in Mycobacterium tuberculosis” (Scientific Reports, 2016):
Where two headings read alike, the source gives them in different places.

Tests used:
[1] = biological target: MurE (Mycobacterium tuberculosis, UniProt P9WJL3); test: inhibition of individual Mur enzyme: MurE; format: biochemical
[2] = biological target: Mur pathway (MurA-MurF) enzymes from Mtb; test: one-pot assay reconstructing the Mur pathway (Pi release), inhibitor studies; format: biochemical, Mycobacterium tuberculosis; settings: for IC50: six compound concentrations 5-100 μM, 15 min pre-incubation, 30 min at 37 °C, 5% DMSO control; for Percentage inhibition, one-pot assay: at 100 μM concentration of compound
[3] = biological target: MurB (Mycobacterium tuberculosis, UniProt P9WJL9); test: inhibition of individual Mur enzyme: MurB; format: biochemical; settings: for remaining activity at 100 µM: at 100 μM compound, vs 'no drug' control (5% DMSO), read-out: RA (residual activity), MurB
Chain of MurB (P9WJL9 whole entry): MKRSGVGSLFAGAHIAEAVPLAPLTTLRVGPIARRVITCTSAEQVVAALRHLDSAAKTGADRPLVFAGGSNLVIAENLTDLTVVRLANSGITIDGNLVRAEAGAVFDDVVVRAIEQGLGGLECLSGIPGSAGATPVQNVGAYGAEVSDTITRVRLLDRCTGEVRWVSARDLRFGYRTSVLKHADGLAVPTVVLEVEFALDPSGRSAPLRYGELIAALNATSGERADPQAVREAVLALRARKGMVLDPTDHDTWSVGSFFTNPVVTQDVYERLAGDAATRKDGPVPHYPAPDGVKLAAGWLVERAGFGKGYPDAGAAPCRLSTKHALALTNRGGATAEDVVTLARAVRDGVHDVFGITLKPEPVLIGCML
Description: To assay MurB activity, the MurA reaction after 30 mins of incubation was supplemented with 10 mM KCl, 0.2 mM NADPH and 60 nM of MurB enzyme in a total volume of 100 μl. The absorbance at 340 nm was monitored over 5 min to calculate the rate of NADPH oxidation. The control reaction contained all the components except MurB.
(§1) Tested compounds at various concentrations (5–100 μM) were pre-incubated with enzymes for 15 mins, followed by the addition of remaining constituents of the assay. The final reaction mixture was incubated for 30 mins at 37 °C. To assess specific inhibition of Mur ligases, each of the ligase was pre-incubated with inhibitors separately and then added to the one-pot reaction mixture. The net Pi released was calculated as described earlier. In the ‘no drug’ control reaction, the organic solvent (DMSO) used in dissolving inhibitory compounds was added at 5% concentration to the one-pot assay, while Isoniazid, a standard anti-TB drug with no known effect on Mur activity, was inculded as another control to ascertain the specificity of the tested inhibitors in the study.

[4] = biological target: MurC (Mycobacterium tuberculosis, UniProt P9WJL7); test: inhibition of individual Mur enzyme: MurC; format: biochemical; settings: for remaining activity at 100 µM: at 100 μM compound, vs 'no drug' control (5% DMSO), read-out: RA (residual activity), MurC
Chain of MurC (P9WJL7 whole entry): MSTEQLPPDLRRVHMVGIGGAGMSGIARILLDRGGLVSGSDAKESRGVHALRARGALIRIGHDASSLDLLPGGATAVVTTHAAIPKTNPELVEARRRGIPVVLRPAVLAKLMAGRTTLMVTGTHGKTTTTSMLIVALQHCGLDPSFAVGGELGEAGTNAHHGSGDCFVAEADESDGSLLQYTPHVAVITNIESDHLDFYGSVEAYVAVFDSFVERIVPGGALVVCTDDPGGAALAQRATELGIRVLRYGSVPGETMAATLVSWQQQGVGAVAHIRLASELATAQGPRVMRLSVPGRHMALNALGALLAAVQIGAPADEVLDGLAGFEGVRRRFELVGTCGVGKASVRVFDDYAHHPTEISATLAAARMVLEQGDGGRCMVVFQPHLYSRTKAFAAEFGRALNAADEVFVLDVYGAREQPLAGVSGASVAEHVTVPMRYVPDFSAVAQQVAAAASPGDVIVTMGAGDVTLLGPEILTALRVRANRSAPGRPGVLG
Description: (§2) Each Mur ligase reaction was performed at 37 °C with an incubation period of 1 h. To measure the activity of MurC, the completed MurB reaction was supplemented with 1 mM L-Alanine, 10 mM MgCl2 and 1 mM ATP. MurD-F ligase activities were performed sequentially, supplementing the prior reaction with 1 mM each of the required substrate (D-Glutamate, meso-Diaminopimelic acid and D -Alanine-D-Alanine, respectively). The control reaction contained all the components except the enzyme that was being tested (e.g. the control reaction for MurC assay contained all the components except MurC). For MurD and MurF reaction, purified MBP at 1 μg concentration was added to the reaction mixture instead of the enzymes. Estimation of net Pi was done as previously described in the MurA assay.
as §1

[5] = test system: Mur pathway (MurA-MurF) enzymes from Mtb; test: ESI-MS analysis of one-pot assay with inhibitor; format: biochemical, Mycobacterium tuberculosis; settings: Fig. S5
[6] = biological target: MurD (Mycobacterium tuberculosis, UniProt P9WJL5); test: inhibition of individual Mur enzyme: MurD; format: biochemical; settings: for remaining activity at 100 µM: at 100 μM compound, vs 'no drug' control (5% DMSO), read-out: RA (residual activity), MurD
Chain of MurD (P9WJL5 whole entry): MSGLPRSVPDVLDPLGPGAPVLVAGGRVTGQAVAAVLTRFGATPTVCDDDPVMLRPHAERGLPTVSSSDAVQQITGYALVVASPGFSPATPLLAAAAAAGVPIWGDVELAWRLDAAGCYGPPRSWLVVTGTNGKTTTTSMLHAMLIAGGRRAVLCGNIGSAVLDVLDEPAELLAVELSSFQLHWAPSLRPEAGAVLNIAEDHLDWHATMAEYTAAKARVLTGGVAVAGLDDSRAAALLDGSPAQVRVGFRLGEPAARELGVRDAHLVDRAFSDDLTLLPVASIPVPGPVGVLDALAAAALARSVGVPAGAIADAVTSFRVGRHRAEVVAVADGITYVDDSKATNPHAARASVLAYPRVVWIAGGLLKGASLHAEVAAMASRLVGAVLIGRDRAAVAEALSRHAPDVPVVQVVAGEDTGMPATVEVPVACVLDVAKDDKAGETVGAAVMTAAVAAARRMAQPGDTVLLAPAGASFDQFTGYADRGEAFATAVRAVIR
Description: as §2, §1

[7] = biological target: MurA (Mycobacterium tuberculosis, UniProt P9WJM1); test: inhibition of individual Mur enzyme: MurA; format: biochemical; settings: for remaining activity at 100 µM: at 100 μM compound, vs 'no drug' control (5% DMSO), read-out: RA (residual activity), MurA
Chain of MurA (P9WJM1 whole entry): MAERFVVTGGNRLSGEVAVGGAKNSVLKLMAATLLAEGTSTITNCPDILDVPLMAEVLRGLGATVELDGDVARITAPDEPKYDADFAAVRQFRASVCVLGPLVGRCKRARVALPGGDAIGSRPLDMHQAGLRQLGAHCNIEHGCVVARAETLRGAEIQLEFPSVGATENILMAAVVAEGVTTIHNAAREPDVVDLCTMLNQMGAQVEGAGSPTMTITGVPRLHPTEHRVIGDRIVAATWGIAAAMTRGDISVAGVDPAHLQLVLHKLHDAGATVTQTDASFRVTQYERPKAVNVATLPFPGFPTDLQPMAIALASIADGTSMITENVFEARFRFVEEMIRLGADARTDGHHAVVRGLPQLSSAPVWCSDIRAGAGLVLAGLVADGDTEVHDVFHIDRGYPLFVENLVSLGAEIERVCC
Description: The reaction was performed in a micro-titer plate at 37 °C for 30 minutes and terminated by the addition of Pi Colorlock™ Assay reagent. Absorbance was measured at 630 nm and the amount of Pi released was calculated from the standard phosphate curve. […] The control reactions contained all the components except MurA. The net Pi was calculated by subtracting total Pi in the control reaction from the total Pi after the completion of the assay. To get a large assay window and to avoid saturation of Pi, optimization of assays were carried out at substrate concentrations so as not to exceed the assay signal beyond 2.0 absorbance units as recommended by the manufacturer of PiColorlock™ Assay kit.
as §1

[8] = biological target: MurF (Mycobacterium tuberculosis, UniProt P9WJL1); test: inhibition of individual Mur enzyme: MurF; format: biochemical
Chain of MurF (P9WJL1 whole entry): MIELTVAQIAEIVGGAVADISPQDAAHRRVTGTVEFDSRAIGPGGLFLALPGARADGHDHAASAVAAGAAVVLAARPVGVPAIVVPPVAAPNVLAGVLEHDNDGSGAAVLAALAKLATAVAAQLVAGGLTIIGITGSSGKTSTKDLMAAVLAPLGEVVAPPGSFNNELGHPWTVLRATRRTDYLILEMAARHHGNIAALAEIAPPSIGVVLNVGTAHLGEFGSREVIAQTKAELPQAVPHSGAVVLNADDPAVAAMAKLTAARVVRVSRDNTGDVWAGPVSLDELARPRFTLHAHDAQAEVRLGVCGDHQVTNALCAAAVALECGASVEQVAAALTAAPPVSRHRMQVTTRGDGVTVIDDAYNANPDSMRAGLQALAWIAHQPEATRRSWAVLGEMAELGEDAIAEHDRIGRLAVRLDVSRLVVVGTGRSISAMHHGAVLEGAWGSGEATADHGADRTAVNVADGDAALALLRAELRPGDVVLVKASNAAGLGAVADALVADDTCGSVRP
Description: as §2, §1

[9] = test system: MurE from E.coli; parameters: method as in PMID 25851408; settings: range stated jointly for MurE and MurF; cited from earlier work
[10] = test system: C=C(OP(=O)(O)O)C(=O)O; test: purified protein, by the assay type; settings: pH 7.0; 37.0 °C

Chain of MurE (P9WJL3 whole entry): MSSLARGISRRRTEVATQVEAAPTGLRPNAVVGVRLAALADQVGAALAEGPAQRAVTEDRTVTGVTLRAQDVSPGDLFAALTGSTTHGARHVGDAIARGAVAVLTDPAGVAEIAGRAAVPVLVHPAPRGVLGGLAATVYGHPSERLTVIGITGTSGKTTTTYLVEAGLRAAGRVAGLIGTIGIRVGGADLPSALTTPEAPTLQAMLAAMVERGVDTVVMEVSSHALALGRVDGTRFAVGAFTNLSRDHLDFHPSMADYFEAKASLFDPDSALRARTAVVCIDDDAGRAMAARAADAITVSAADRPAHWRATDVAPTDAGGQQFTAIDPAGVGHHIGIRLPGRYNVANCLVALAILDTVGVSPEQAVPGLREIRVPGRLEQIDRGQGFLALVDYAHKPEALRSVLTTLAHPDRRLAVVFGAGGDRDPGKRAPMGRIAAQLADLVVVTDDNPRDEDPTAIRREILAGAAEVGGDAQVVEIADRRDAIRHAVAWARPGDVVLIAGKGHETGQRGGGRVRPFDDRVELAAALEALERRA

Row | Compound | IC50 ([1]; six compound concentrations 5-100 μM, read-out: IC50, MurE) | IC50 [2] | remaining activity at 100 µM [3] | remaining activity at 100 µM [4] | final product (UDP-MurNAc pentapeptide) formation in one-pot assay by ESI-MS [5] | remaining activity at 100 µM [6] | remaining activity at 100 µM [7] | IC50 [8] | IC50 [1] | Percentage inhibition, one-pot assay [2] | inhibition of MurB (in words) [3] | inhibition of MurC (in words) [4] | IC50 [9] | inhibition of MurD (in words) [6] | inhibition of MurA (in words) [7] | Km [10] | Vmax [10]
1 | N[C@@H]1CON=C1O [D-Cycloserine, reference compound] | 97 µM | 74 µM | > 100% | 64% | inhibition of final product formation | 72% | > 100% | 67.1 µM | – | – | – | – | – | – | – | – | –
2 | O=C(O)c1cc(-c2ccc(/C=C3/SC(=S)N(c4ccc([N+](=O)[O-])cc4)C3=O)o2)ccc1Cl [Compound 3] | – | 19.6 µM | > 100% | 66% | – | 88% | 75% | 45.4 µM | 61.6 µM | 97% | no inhibition | marginal inhibition | 11 to 16 µM | marginal inhibition | marginal inhibition | – | –
3 | Mtb MurA (Mycobacterium tuberculosis H37Rv) | – | – | – | – | – | – | – | – | – | – | – | – | – | – | – | 527.8 µM | 0.173 µM/min
4 | O=C(O)c1cc(-c2ccc(/C=C3/SC(=S)N(c4cccc([N+](=O)[O-])c4)C3=O)o2)ccc1Cl [Compound 4] | – | 8.25 µM | > 100% | 73% | – | 85% | > 100% | 25.8 µM | 17 µM | 93% | did not inhibit | marginal inhibition | 11 to 16 µM | marginal inhibition | did not inhibit | – | –
